The record followed here is patent publication US10420341B2, “Herbicidal phenylpyrimidines” (BASF SE, priority 2015, dated 2019).

The test system of assay [1] is ECHCG. The experiment in a line: greenhouse pre-emergence herbicidal test. It is filed as in vivo, Echinocloa crus-galli. The conditions noted are these: pre-emergence method, scale from 0 to 100. The source says: (§1) The seeds of the test plants were sown separately for each species. For the pre-emergence treatment, the active ingredients, which had been suspended or emulsified in water, were applied directly after sowing by means of finely distributing nozzles. The containers were irrigated gently to promote germination and growth and subsequently covered with transparent plastic hoods until the plants had rooted. This cover caused uniform germination of the test plants, unless this had been impaired by the active ingredients. Depending on the species, the plants were kept at 10-25° C. or 20-35° C., respectively. The test period extended over 2 to 4 weeks. During this time, the plants were tended, and their response to the individual treatments was evaluated. Evaluation was carried out using a scale from 0 to 100. 100 means no emergence of the plants, or complete destruction of at least the aerial moieties, and 0 means no damage, or normal course of growth. […] The plants used in the greenhouse experiments were of the following species: [table]

In a further assay the test system is APESV. The assay can be described thus: greenhouse pre-emergence herbicidal test. The conditions noted are these: pre-emergence method, scale from 0 to 100. It is filed as in vivo, Apera spica-venti.
Text: as §1

For another assay, the system named is ALOMY. The experiment in a line: greenhouse post-emergence herbicidal test. The class given is in vivo, Alopercurus myosuroides. The following applies: post-emergence method, scale from 0 to 100. The source says:
(§2) The seeds of the test plants were sown separately for each species. For the post-emergence treatment, the test plants were first grown to a height of 3 to 15 cm, depending on the plant habit, and only then treated with the active ingredients which had been suspended or emulsified in water. For this purpose, the test plants were either sown directly and grown in the same containers, or they were first grown separately as seedlings and transplanted into the test containers a few days prior to treatment. Depending on the species, the plants were kept at 10-25° C. or 20-35° C., respectively. The test period extended over 2 to 4 weeks. During this time, the plants were tended, and their response to the individual treatments was evaluated. Evaluation was carried out using a scale from 0 to 100. 100 means no emergence of the plants, or complete destruction of at least the aerial moieties, and 0 means no damage, or normal course of growth. […] The plants used in the greenhouse experiments were of the following species: [table]

Assay [2] concerns ECHCG. The experiment in a line: greenhouse post-emergence herbicidal test. It is filed as in vivo, Echinocloa crus-galli. The following applies: post-emergence method, scale from 0 to 100.
Text: as §2

The next assay relates to AVEFA. The experiment in a line: greenhouse post-emergence herbicidal test. It is filed as in vivo, Avena fatua. The following applies: post-emergence method, scale from 0 to 100.
Text: as §2

On to `COc1ncc(-c2ccccc2C)c(C(=O)O)n1` [example 52], for which the “herbicidal activity against ECHCG” value in the assay on ECHCG [1] (application rate 2000 g/ha) is listed as “good (A good herbicidal activity is given at values of at least 70)”. In addition, the “herbicidal activity against APESV” value in the assay with APESV (application rate 2000 g/ha) is given as “very good (a very good herbicidal activity is given at values of at least 85)”. Besides, the “herbicidal activity against ALOMY” value in the assay on ALOMY (application rate 2000 g/ha) is recorded as “good (A good herbicidal activity is given at values of at least 70)”.
With `N#Cc1ccccc1-c1cnc(C2CC2)nc1C(=O)O` [example 154], the entries for the “herbicidal activity against ECHCG” value in the assay on ECHCG [1] (application rate 500 g/ha) and with ECHCG [2] (application rate 500 g/ha) were “very good (a very good herbicidal activity is given at values of at least 85)” and “good (A good herbicidal activity is given at values of at least 70)”, respectively. The “herbicidal activity against APESV” value in the assay with APESV (application rate 500 g/ha) is “very good (a very good herbicidal activity is given at values of at least 85)”. In addition, the “herbicidal activity against ALOMY” value in the assay on ALOMY (application rate 500 g/ha) is “very good (a very good herbicidal activity is given at values of at least 85)”.
`COc1ccc(C)c(-c2cnc(C3CC3)nc2C(=O)O)c1` [example 166]: the “herbicidal activity against ECHCG” value is recorded as “very good (a very good herbicidal activity is given at values of at least 85)” in the assay on ECHCG [1] (application rate 500 g/ha) and “good (A good herbicidal activity is given at values of at least 70)” in the assay with ECHCG [2] (application rate 500 g/ha). Further, the “herbicidal activity against APESV” value with APESV (application rate 500 g/ha) is listed as “very good (a very good herbicidal activity is given at values of at least 85)”. In addition, the “herbicidal activity against ALOMY” value in the assay on ALOMY (application rate 500 g/ha) is on record as “good (A good herbicidal activity is given at values of at least 70)”.
Turning to `Cc1c(F)cccc1-c1cnc(C2CC2)nc1C(=O)O` [example 170], the “herbicidal activity against ECHCG” value is “very good (a very good herbicidal activity is given at values of at least 85)” in the assay with ECHCG [1] (application rate 1000 g/ha) and “good (A good herbicidal activity is given at values of at least 70)” in the assay with ECHCG [2] (application rate 1000 g/ha). The “herbicidal activity against APESV” value in the assay with APESV (application rate 1000 g/ha) is “very good (a very good herbicidal activity is given at values of at least 85)”. Besides, the “herbicidal activity against ALOMY” value in the assay on ALOMY (application rate 1000 g/ha) is recorded as “very good (a very good herbicidal activity is given at values of at least 85)”.
Turning to `COC(=O)c1nc(C2CC2)ncc1-c1c(Cl)cccc1OC` [example 202], the “herbicidal activity against ECHCG” value was “very good (a very good herbicidal activity is given at values of at least 85)” in the assay on ECHCG [1] (application rate 1000 g/ha) and “good (A good herbicidal activity is given at values of at least 70)” with ECHCG [2] (application rate 1000 g/ha). Also, the “herbicidal activity against APESV” value in the assay with APESV (application rate 1000 g/ha) was “good (A good herbicidal activity is given at values of at least 70)”. For the same molecule, the “herbicidal activity against ALOMY” value in the assay on ALOMY (application rate 1000 g/ha) is reported as “very good (a very good herbicidal activity is given at values of at least 85)”.
Regarding `COC(=O)c1nc(C2CC2)ncc1-c1ccccc1C#N` [example 217], the “herbicidal activity against ECHCG” value in the assay with ECHCG [1] (application rate 500 g/ha) and in the assay with ECHCG [2] (application rate 500 g/ha) was “very good (a very good herbicidal activity is given at values of at least 85)” in each case. In addition, in the assay on APESV (application rate 500 g/ha), the “herbicidal activity against APESV” value is “very good (a very good herbicidal activity is given at values of at least 85)”. Moreover, the “herbicidal activity against ALOMY” value in the assay with ALOMY (application rate 500 g/ha) was “good (A good herbicidal activity is given at values of at least 70)”.
Consider `COC(=O)c1nc(C2CC2)ncc1-c1cc(C)ccc1C` [example 228], for which the “herbicidal activity against APESV” value with APESV (application rate 2000 g/ha) is reported as “very good (a very good herbicidal activity is given at values of at least 85)”. For the same molecule, the “herbicidal activity against ALOMY” value with ALOMY (application rate 2000 g/ha) is “very good (a very good herbicidal activity is given at values of at least 85)”. For the same molecule, the “herbicidal activity against ECHCG” value in the assay on ECHCG [2] (application rate 2000 g/ha) is listed as “very good (a very good herbicidal activity is given at values of at least 85)”.
On to `COC(=O)c1nc(C2CC2)ncc1-c1cc(OC)ccc1C` [example 229], for which the “herbicidal activity against ECHCG” value with ECHCG [1] (application rate 500 g/ha) and in the assay on ECHCG [2] (application rate 500 g/ha) was “very good (a very good herbicidal activity is given at values of at least 85)” throughout. Besides, in the assay with APESV (application rate 500 g/ha), the “herbicidal activity against APESV” value is given as “very good (a very good herbicidal activity is given at values of at least 85)”. Further, the “herbicidal activity against ALOMY” value in the assay with ALOMY (application rate 500 g/ha) is “good (A good herbicidal activity is given at values of at least 70)”.
With `COC(=O)c1nc(C2CC2)ncc1-c1ccc(C)cc1C` [example 231], the entries for the “herbicidal activity against ECHCG” value in the assay on ECHCG [1] (application rate 1000 g/ha) and in the assay with ECHCG [2] (application rate 1000 g/ha) were “very good (a very good herbicidal activity is given at values of at least 85)” and “good (A good herbicidal activity is given at values of at least 70)”, respectively. For the same molecule, in the assay on APESV (application rate 1000 g/ha), the “herbicidal activity against APESV” value was “very good (a very good herbicidal activity is given at values of at least 85)”. Moreover, in the assay on ALOMY (application rate 1000 g/ha), the “herbicidal activity against ALOMY” value was “good (A good herbicidal activity is given at values of at least 70)”.
`COC(=O)c1nc(C2CC2)ncc1-c1ccccc1C(F)(F)F` [example 239]: the “herbicidal activity against ECHCG” value in the assay with ECHCG [1] (application rate 1000 g/ha) is reported as “very good (a very good herbicidal activity is given at values of at least 85)”. The “herbicidal activity against AVEFA” value in the assay on AVEFA (application rate 1000 g/ha) is recorded as “very good (a very good herbicidal activity is given at values of at least 85)”. Besides, in the assay with APESV (application rate 1000 g/ha), the “herbicidal activity against APESV” value is “very good (a very good herbicidal activity is given at values of at least 85)”.
Consider `COC(=O)COC(=O)c1nc(C2CC2)ncc1-c1ccccc1Cl` [example 261], for which the “herbicidal activity against ECHCG” value with ECHCG [1] (application rate 1000 g/ha) and with ECHCG [2] (application rate 1000 g/ha) was “very good (a very good herbicidal activity is given at values of at least 85)” throughout. Besides, the “herbicidal activity against APESV” value with APESV (application rate 1000 g/ha) is “very good (a very good herbicidal activity is given at values of at least 85)”. Besides, in the assay with ALOMY (application rate 1000 g/ha), the “herbicidal activity against ALOMY” value is reported as “very good (a very good herbicidal activity is given at values of at least 85)”.
With `O=C(OC1CC1)c1nc(C2CC2)ncc1-c1ccccc1Cl` [example 262], the “herbicidal activity against ECHCG” value in the assay with ECHCG [1] (application rate 500 g/ha) is “very good (a very good herbicidal activity is given at values of at least 85)”. Moreover, the “herbicidal activity against AVEFA” value in the assay with AVEFA (application rate 500 g/ha) is given as “good (A good herbicidal activity is given at values of at least 70)”. The “herbicidal activity against APESV” value in the assay on APESV (application rate 500 g/ha) is “very good (a very good herbicidal activity is given at values of at least 85)”.
Consider `CC(C)OC(=O)CSC(=O)c1nc(C2CC2)ncc1-c1ccccc1Cl` [example 279], for which, in the assay with ECHCG [1] (application rate 500 g/ha), the “herbicidal activity against ECHCG” value is “very good (a very good herbicidal activity is given at values of at least 85)”. Besides, in the assay on AVEFA (application rate 500 g/ha), the “herbicidal activity against AVEFA” value is given as “very good (a very good herbicidal activity is given at values of at least 85)”. Besides, the “herbicidal activity against APESV” value in the assay with APESV (application rate 500 g/ha) was “very good (a very good herbicidal activity is given at values of at least 85)”.
As for `COc1ccc(CSC(=O)c2nc(C3CC3)ncc2-c2ccccc2Cl)cc1` [example 282], in the assay on AVEFA (application rate 500 g/ha), the “herbicidal activity against AVEFA” value is “very good (a very good herbicidal activity is given at values of at least 85)”. In the assay with APESV (application rate 500 g/ha), the “herbicidal activity against APESV” value is listed as “very good (a very good herbicidal activity is given at values of at least 85)”.
`COC(=O)c1nc(C(F)(F)F)ncc1-c1ccccc1Cl` [example 316]: the “herbicidal activity against ECHCG” value in the assay with ECHCG [1] (application rate 1000 g/ha) is listed as “good (A good herbicidal activity is given at values of at least 70)”. In addition, in the assay with AVEFA (application rate 1000 g/ha), the “herbicidal activity against AVEFA” value is listed as “good (A good herbicidal activity is given at values of at least 70)”. For the same molecule, the “herbicidal activity against APESV” value in the assay with APESV (application rate 1000 g/ha) is reported as “good (A good herbicidal activity is given at values of at least 70)”.
On to `COC(=O)c1nc(C2CC2)ncc1-c1ccccc1SC(F)(F)F` [example 321], for which the “herbicidal activity against AVEFA” value in the assay on AVEFA (application rate 1000 g/ha) is given as “herbicidal activity”.
